In PMC6515668, “Liposomes for effective drug delivery to the ocular posterior chamber” (Journal of Nanobiotechnology, 2019):
Counter-ions that a name gives are not always drawn.

How the values were obtained:
[1] = test system: ARPE-19; test: In vitro anti-ROS efficacy (H2O2-exposed cells, DCFH-DA); assay type: cell-based, human; conditions: ARPE-19 exposed to 200 μM H2O2 for 24 h, versus model group
Method: Human retinal pigment epithelial cells (ARPE-19) were maintained in Dulbecco’s modified Eagle’s medium/Ham’s F12 (Gibco) supplemented with 10% fetal bovine serum (Gibco), 100 IU/mL penicillin (Gibco), and 100 μg/mL streptomycin (Gibco) at 37 °C in an atmosphere of 5% CO2. After incubation, cells were exposed to 200 μM H2O2 for 24 h, and fluorescent probes (Beyotime Biotechnology, China) were used to measure intracellular ROS levels (DCFH-DA, 10 mM) according to the manufacturer’s instructions. Before application, CBLs and P-CBLs of a certain volume were diluted with complete culture medium. The final concentration of BBH was 0.0040 μM and 0.0020 μM for CHR in CBLs groups, while 0.0044 μM of BBH, 0.0018 μM for CHR for P-CBLs, respectively. The final drug concentration of CBs was the same as CBLs group. Treated cells were loaded with fluorescent probes in a serum-free medium for 20 min at 37 °C. Then, photographs were taken using a long-term real-time dynamic live cell imaging analyzer.

[2] = Microdialysis probe recovery and stability (dialysis and retrodialysis); conditions: retrodialysis, 7 h
Method: Normal saline containing 30% ethanol was chosen as the perfusate for two drugs with opposing polarity, and the flow rate was 1.5 μL/min according to our previous study. Then, an in vitro RR% evaluation was performed via dialysis and retrodialysis. The in vivo stability study was performed using a retrodialysis method, which provided the evidence for the microdialysis method that was used for the in vivo pharmacokinetics study.

stability in in vivo analysis [2]	SMILES	intracellular ROS levels (relative fluorescence ratio) [1]
good stability for 7 h	Cc1cc(O)c2c(c1)C(=O)c1cccc(O)c1C2=O [CHR, chrysophanol]	could reduce intracellular ROS levels effectively
good stability for 7 h	COc1ccc2cc3[n+](cc2c1OC)CCc1cc2c(cc1-3)OCO2 [BBH, berberine hydrochloride]	could reduce intracellular ROS levels effectively
